This assay relates to L1210 leukemia ip in BDF1 mice, survival T/C. The assay can be described thus: NCI In Vivo Anticancer Drug Screen. Data for tumor model L1210 Leukemia (intraperitoneal) in B6D2F1 (BDF1) mice. As to conditions: endpoint: mean survival time, higher = longer survival. Put shortly: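 Value reflects the ratio of survival in compound-treated mice to survival in vehicle-treated controls, with both groups carrying the same transplanted tumor.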

[1] abbreviates: dose: 100.0 mg/kg/injection, schedule: Q01DX009 (ip), vehicle: Klucel (hydroxypropylcellulose) (HPC).
The mark [2] stands for this setting: dose: 100.0 mg/kg/injection, schedule: Q04DX003 (ip), vehicle: Klucel (hydroxypropylcellulose) (HPC).
The mark [3] stands for this setting: dose: 200.0 mg/kg/injection, schedule: Q01DX009 (ip), vehicle: Klucel (hydroxypropylcellulose) (HPC).
Setting [4] is: dose: 200.0 mg/kg/injection, schedule: Q04DX003 (ip), vehicle: Klucel (hydroxypropylcellulose) (HPC).
Where [5] appears, read: dose: 400.0 mg/kg/injection, schedule: Q04DX003 (ip), vehicle: Klucel (hydroxypropylcellulose) (HPC).
[6] abbreviates: dose: 100.0 mg/kg/injection, schedule: Q01DX001 (ip), vehicle: saline.
The mark [7] stands for this setting: dose: 200.0 mg/kg/injection, schedule: Q01DX001 (ip), vehicle: saline.

Each structure is given as a SMILES string. Inconclusive results and toxic doses are left out. Square brackets hold non-standard residues; d marks the D form. Peptide text beside a SMILES is read from it. * marks the point of attachment. ξ: configuration not given here. Cbz = O=C(OCc1ccccc1)*; ξNva = CCCC(N)C(=O)O

Turning to `CN(C)CCCN=Cc1ccccc1O.CN(C)CCCN=Cc1ccccc1O.[Ni+2]`, the T/C reads like this: (dose: 6.25 mg/kg/injection, schedule: Q04DX003 (ip), vehicle: saline with Tween-80) 100 % of control; (dose: 12.5 mg/kg/injection, schedule: Q04DX003 (ip), vehicle: saline with Tween-80) 94 % of control; (dose: 25.0 mg/kg/injection, schedule: Q04DX003 (ip), vehicle: saline with Tween-80) 101 % of control.

For `CCN1CCN(Cc2ccccc2)C(CCl)C1` (stereo not given), the T/C was 96 % of control (dose: 12.5 mg/kg/injection, schedule: Q01DX009 (ip), vehicle: Klucel (hydroxypropylcellulose) (HPC)); 100 % of control (dose: 12.5 mg/kg/injection, schedule: Q04DX003 (ip), vehicle: Klucel (hydroxypropylcellulose) (HPC)); 102 % of control (dose: 25.0 mg/kg/injection, schedule: Q01DX009 (ip), vehicle: Klucel (hydroxypropylcellulose) (HPC)); 96 % of control (dose: 25.0 mg/kg/injection, schedule: Q04DX003 (ip), vehicle: Klucel (hydroxypropylcellulose) (HPC)); 93 % of control (dose: 50.0 mg/kg/injection, schedule: Q04DX003 (ip), vehicle: Klucel (hydroxypropylcellulose) (HPC)).

With `CC(=O)Oc1cc(C)c(OC(C)=O)c2ccccc12`, the T/C was 96 % of control under setting [1]; 96 % of control under setting [2]; 93 % of control under setting [3]; 103 % of control under setting [4]; 96 % of control under setting [5].

On to `Cc1ccc(S(=O)(=O)N/N=C\c2cccc([N+](=O)[O-])c2)cc1`, for which the T/C is, setting by setting: under setting [1], 103 % of control; under setting [3], 98 % of control; (dose: 400.0 mg/kg/injection, schedule: Q01DX009 (ip), vehicle: Klucel (hydroxypropylcellulose) (HPC)) 93 % of control.

On to `COc1c2c(c(OC(C)=O)c3c1C(=O)c1ccccc1C3=O)CCCC2`, for which the T/C is, setting by setting: (dose: 6.25 mg/kg/injection, schedule: Q01DX001 (ip), vehicle: saline) 100 % of control; (dose: 12.5 mg/kg/injection, schedule: Q01DX001 (ip), vehicle: saline) 96 % of control; (dose: 25.0 mg/kg/injection, schedule: Q01DX001 (ip), vehicle: saline) 101 % of control; (dose: 50.0 mg/kg/injection, schedule: Q01DX001 (ip), vehicle: saline) 95 % of control; under setting [6], 93 % of control.

As to `CC(C)(C)OC(=O)C1=CNCCC1`, the T/C is 102 % of control under setting [6]; 106 % of control (dose: 100.0 mg/kg/injection, schedule: Q04DX003 (ip), vehicle: saline); 94 % of control under setting [7]; 98 % of control (dose: 200.0 mg/kg/injection, schedule: Q04DX003 (ip), vehicle: saline); 105 % of control (dose: 400.0 mg/kg/injection, schedule: Q01DX001 (ip), vehicle: saline).

As for `CC(C)(C)C1CCC2(CC1)CC(=O)N(N1CCCCCC1)C(=O)C2`, the T/C (dose: 50.0 mg/kg/injection, schedule: Q01DX001 (ip), vehicle: carboxymethylcellulose (CMC)) was 95 % of control; the T/C (dose: 100.0 mg/kg/injection, schedule: Q01DX001 (ip), vehicle: carboxymethylcellulose (CMC)) is 101 % of control; the T/C (dose: 200.0 mg/kg/injection, schedule: Q01DX001 (ip), vehicle: carboxymethylcellulose (CMC)) is 95 % of control; the T/C (dose: 400.0 mg/kg/injection, schedule: Q01DX001 (ip), vehicle: carboxymethylcellulose (CMC)) is 104 % of control.

With `O=C(O)c1ccccc1C(=O)NCc1ccco1`, the T/C is 94 % of control (dose: 50.0 mg/kg/injection, schedule: Q01DX001 (ip), vehicle: other); 105 % of control (dose: 100.0 mg/kg/injection, schedule: Q01DX001 (ip), vehicle: other); 105 % of control (dose: 200.0 mg/kg/injection, schedule: Q01DX001 (ip), vehicle: other); 100 % of control (dose: 400.0 mg/kg/injection, schedule: Q01DX001 (ip), vehicle: other).

Turning to `Nc1cccc[n+]1CC1(c2ccccc2)OCCO1`, the T/C is 110 % of control (dose: 50.0 mg/kg/injection, schedule: Q01DX001 (ip), vehicle: Klucel (hydroxypropylcellulose) (HPC)) and 106 % of control (dose: 100.0 mg/kg/injection, schedule: Q01DX001 (ip), vehicle: Klucel (hydroxypropylcellulose) (HPC)).

For `CCNC(c1ccccc1)C(O)c1ccccc1` (stereo not given), the T/C (dose: 50.0 mg/kg/injection, schedule: Q04DX002 (ip), vehicle: Klucel (hydroxypropylcellulose) (HPC)) was 94 % of control; the T/C under setting [1] is 104 % of control; the T/C (dose: 100.0 mg/kg/injection, schedule: Q04DX002 (ip), vehicle: Klucel (hydroxypropylcellulose) (HPC)) was 105 % of control; the T/C under setting [3] is 102 % of control.

For the compound `O=C(O)c1cc(=O)c(O)c2c(O)c(O)c(O)cc2c1`, the T/C reads like this: under setting [6], 103 % of control; under setting [7], 91 % of control.

For the compound `O=NN(CCCl)C(=O)Nc1ccccc1C(=O)O`, the T/C is, setting by setting: (dose: 6.0 mg/kg/injection, schedule: Q01DX001 (ip), vehicle: carboxymethylcellulose (CMC)) 121 % of control; (dose: 9.0 mg/kg/injection, schedule: Q01DX001 (ip), vehicle: carboxymethylcellulose (CMC)) 156 % of control.

Turning to `CC(C)(SCCc1ccncc1)C(N)C(=O)O` (stereo not given), the T/C was 97 % of control under setting [2], 92 % of control under setting [4] and 94 % of control under setting [5].

`CCCCSc1cc(C)nc2ccccc12`: the T/C is, setting by setting: (dose: 25.0 mg/kg/injection, schedule: Q01DX009 (ip), vehicle: saline with Tween-80) 100 % of control; (dose: 25.0 mg/kg/injection, schedule: Q04DX002 (ip), vehicle: saline with Tween-80) 93 % of control; (dose: 50.0 mg/kg/injection, schedule: Q01DX009 (ip), vehicle: saline with Tween-80) 96 % of control; (dose: 50.0 mg/kg/injection, schedule: Q04DX002 (ip), vehicle: saline with Tween-80) 96 % of control; (dose: 100.0 mg/kg/injection, schedule: Q01DX009 (ip), vehicle: saline with Tween-80) 93 % of control; (dose: 100.0 mg/kg/injection, schedule: Q04DX002 (ip), vehicle: saline with Tween-80) 93 % of control.

As to `CCCC(NC(=O)CNC(=O)CNC(=O)OCc1ccccc1)C(=O)OC` (stereo not drawn) (Cbz-Gly-Gly-[ξNva]-OMe), the T/C (dose: 100.0 mg/kg/injection, schedule: Q04DX003 (ip), vehicle: saline with Tween-80) was 98 % of control; the T/C (dose: 200.0 mg/kg/injection, schedule: Q04DX003 (ip), vehicle: saline with Tween-80) was 97 % of control; the T/C (dose: 400.0 mg/kg/injection, schedule: Q04DX003 (ip), vehicle: saline with Tween-80) was 103 % of control.

In the case of `O=S(=O)(C/C=C/CC(Cl)(Cl)Cl)C/C=C/CC(Cl)(Cl)Cl`, the T/C by setting is: (dose: 100.0 mg/kg/injection, schedule: Q01DX001 (ip), vehicle: acetone) 95 % of control; (dose: 100.0 mg/kg/injection, schedule: Q01DX009 (ip), vehicle: saline) 90 % of control; (dose: 100.0 mg/kg/injection, schedule: Q04DX003 (ip), vehicle: acetone) 97 % of control; (dose: 200.0 mg/kg/injection, schedule: Q01DX001 (ip), vehicle: acetone) 94 % of control; (dose: 200.0 mg/kg/injection, schedule: Q01DX009 (ip), vehicle: saline) 93 % of control; (dose: 200.0 mg/kg/injection, schedule: Q04DX003 (ip), vehicle: acetone) 95 % of control. For the same compound, the T/C by setting is: (dose: 400.0 mg/kg/injection, schedule: Q01DX001 (ip), vehicle: acetone) 89 % of control; (dose: 400.0 mg/kg/injection, schedule: Q01DX009 (ip), vehicle: saline) 92 % of control; (dose: 400.0 mg/kg/injection, schedule: Q04DX003 (ip), vehicle: acetone) 95 % of control.

These data come from PubChem BioAssay AID248 (DTP/NCI, 2004).
